A short description of data set [1]: Drug internalization in human HeLa cells at 1 uM by RP-HPLC-MS analysis. The class given is ADME, cell-based.
The test system of another data set is HeLa. The data set can be described thus: Inhibition of protein synthesis in human HeLa cells at 50 to 500 uM pre-incubated for 1 hr before L-[35S]-cysteine and L-[35S]-methionine addition and measured after 1 hr by Comassie staining based autoradiography. The class given is functional, cell-based.

The structures appear in SMILES notation. The source made the active and inactive calls. No cut-off for these calls is given here.

In data set [1], `C/C=C(\C)C(=O)O[C@H]1[C@H](O)[C@]2(COC(C)=O)[C@@H](O)C[C@]3(C)C(=CC[C@@H]4[C@@]5(C)CC[C@H](O[C@@H]6O[C@H](C(=O)NCC)[C@@H](O)[C@H](O)[C@H]6O)[C@@](C)(CO)[C@@H]5CC[C@]43C)[C@@H]2CC1(C)C` came in with a Drug uptake of 15%. Moreover, in the data set on HeLa, the inhibition result was “inactive”.

For the origin of these results see ChEMBL document CHEMBL4270485, “Determination of Gymnemic Acid I as a Protein Biosynthesis Inhibitor Using Chemical Proteomics” (J Nat Prod, 2017).
